# Active and inactive are the calls of the source.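 The calls were made as follows: active = inhibition of at least 30% at one or more tested concentrations; inactive = inhibition below 30% at every dose.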
# Assay: inhibitors of Bluetongue virus cytopathic effect, confirmation, arbovirus, BSR cells (AID 1250)
# Conditions: BSR cells, Bluetongue virus CPE, ATP luminescence, 72 h; at 5 µM (top of the series)
row,SMILES,CPE inhibition
1,O=C(Nc1cccc(Cl)c1)Nc1ccnc(-c2cccnc2)n1,23.9% (inactive)

# Same assay, conditions: BSR cells, Bluetongue virus CPE, ATP luminescence, 72 h; at 20 µM (top of the series)
row,SMILES,CPE inhibition
1,Cc1nc2c(C(=O)NCCC(C)C)c[nH]n2c(=O)c1Cl,9.83% (inactive)
2,Cc1cccc(Sc2nc(-c3ccccc3)ncc2C(=O)O)c1,7.57% (inactive)
3,COc1ccccc1N1CCN(Cc2ccc(OC)c3ccccc23)CC1,11.1% (inactive)
4,COc1ccc2nc(N3C(=O)CC(Cc4cc(C)cc(C)c4)C3=O)sc2c1 (stereo not given),13.6% (inactive)
5,COc1ccc(CCCc2nnc(SCc3nc4ccccc4c(=O)[nH]3)n2C)cc1,3.86% (inactive)
6,COc1cc(/C=C/C(=O)c2c(O)n(CCc3ccccc3)c(=O)[nH]c2=O)ccc1O,13% (inactive)
7,O=C(Nc1ccc(OC(F)(F)F)cc1)c1[nH]ncc1[N+](=O)[O-],25.3% (inactive)
8,O=C1NC(=O)/C(=C\c2ccc(Oc3ccc([N+](=O)[O-])cn3)cc2)S1,12.8% (inactive)
9,COc1ccc2ccc(O)c(CN3CC=C(c4ccccc4)CC3)c2c1,14.6% (inactive)
10,COc1ccc(C(=O)Nc2cc(Cl)ccc2C(=O)O)cc1,17.7% (inactive)
11,O=C(O)CSc1nc(-c2ccc(Cl)cc2)nc2c1oc1ccccc12,24.1% (inactive)
12,CC1=Nc2ccccc2/C1=C/c1c(N)n2c(S(=O)(=O)C(C)C)nsc2nc1=O,19% (inactive)
13,Cc1ccc(-n2cccc2/C=C2\C(=N)N3N=C(C(C)C)SC3=NC2=O)cc1,25.2% (inactive)
14,Cc1noc(C)c1C(=O)OCC(=O)Nc1cc(Cl)ccc1Oc1ccccc1,22.6% (inactive)
15,COCCn1c(-c2ccc(Cl)cc2)cnc1SCC(=O)NCc1cccs1,18.9% (inactive)
16,O=C(Nc1nnc(SCc2ccccc2Cl)s1)C1COc2ccccc2O1 (stereo not given),16.7% (inactive)
17,COC(=O)c1cc(NC(=S)NCc2ccc(Cl)cc2)cc(C(=O)OC)c1,-1.18% (inactive)
18,Oc1ccc(-c2n[nH]c(=S)n2-c2ccc3c(c2)OCCO3)c(O)c1,18.1% (inactive)
19,COc1ccccc1NC(=S)NCCSc1ccc(C)cc1,10.1% (inactive)
20,CC1CC1C(=O)Nc1nc(-c2ccc(Cl)s2)cs1 (stereo not given),12% (inactive)
21,CC1CC(C)(C)CC2(C1)NC(=O)N(CC(=O)NCCc1c[nH]c3ccccc13)C2=O (stereo not given),23.6% (inactive)
22,Cc1ccccc1S(=O)(=O)Nc1ncnc2scc(-c3ccccc3)c12,20.4% (inactive)
23,O=C(O)c1ccccc1CSc1ccccn1,2.46% (inactive)
24,O=C(O)c1cccc(NC(=S)NC(=O)c2ccc(-c3ccc(Cl)cc3)o2)c1,29.9% (inactive)

row,SMILES,CPE inhibition
1,Cc1ccc2nc(-c3ccc(Br)o3)oc(=O)c2c1,21.3% (inactive)
2,CC(C)(C)c1ccc(N/N=C(\C#N)S(=O)(=O)C(C)(C)C)cc1,23.9% (inactive)
3,O=C(NC(=S)NCCC1=CCCCC1)c1ccccc1Br,28.5% (inactive)
4,Oc1c(Br)cc(C2N=C(c3ccccc3)NO2)cc1Br (stereo not given),23.9% (inactive)
5,O=C(O)c1cc(-c2ccc(/C=N/Nc3ccc([N+](=O)[O-])cn3)o2)ccc1Cl,21.4% (inactive)
6,CCOc1ccc(-c2csc(NC(=O)CSCC(=O)O)n2)c2ccccc12,17.7% (inactive)
7,COc1cc2ccccc2cc1C(=O)NC(=S)Nc1cc(C(=O)O)ccc1C,17.8% (inactive)
8,Oc1ccccc1CNCCCNCc1ccccc1O,20.8% (inactive)
9,O=C(O)c1cc(N/N=C2/CC(c3ccccc3)Oc3ccccc32)ccc1Cl (stereo not given),16.6% (inactive)
10,CC(C)(C)c1ccc(C(=O)NC(=S)NCC2CCCO2)cc1 (stereo not given),3.96% (inactive)
11,COc1ccc(Br)cc1CN(C)CC(=O)Nc1c(Cl)cccc1Cl,28.5% (inactive)
12,CCOc1ccc(S(=O)(=O)N2CCN(c3ccccc3OC)CC2)c2cccnc12,17.1% (inactive)
13,CC(C)c1ccc(C2=C(O)c3ccccc3C(=O)C2=O)cc1,14.3% (inactive)
14,C/C(=N\NC(=O)COc1ccc([N+](=O)[O-])cc1)C(C)(C)C,4.19% (inactive)
15,Cc1nnc(SCC(=O)N2CCc3ccccc32)s1,3.29% (inactive)
16,COC(=O)Nc1ccc(S(=O)(=O)N2CCC(C(=O)N(C)C3CCCCC3)CC2)cc1,4.71% (inactive)
17,O=C(CCl)N=c1sccn1Cc1cccc2ccccc12,7.67% (inactive)
18,Cc1ccccc1-n1nc(CSc2nc3ccccc3[nH]2)c(-c2ccccc2)c1N,14.9% (inactive)
19,COc1ccc(OC)c(NC(=O)c2cc(-c3ccc(C)cc3O)n[nH]2)c1,9.4% (inactive)
20,C/C(=N\NC(=O)c1ccccc1)c1nc2ccccc2n1C,-15.5% (inactive)
21,COc1ccc(S(=O)(=O)N/N=C(/C)c2cccc(NC(=O)c3ccccc3Cl)c2)cc1,15% (inactive)
22,COC(=O)c1ccccc1NC(=O)CN1CCC(NC(=O)c2ccc(C)cc2)CC1,21.3% (inactive)
23,CCc1ccc(N2CCN(C(=O)c3ccc(OC)c(OC)c3)CC2)cc1,7.4% (inactive)
24,O=C(Nc1c(-c2ccccc2)nc2ccccn12)c1cccs1,20.6% (inactive)

row,SMILES,CPE inhibition
1,COC(=O)c1ccccc1NC(=O)C1CCN(C(=O)c2cc(OC)c(OC)c(OC)c2)CC1,1.96% (inactive)
2,CCOC(=O)c1ccc(N2CCN(c3ccccc3F)CC2)c(NC(=O)Nc2ccccc2)c1,19.7% (inactive)
3,COCCn1c(C)cc(C(=O)CSc2cc(C)c3ccccc3n2)c1C,7.16% (inactive)
4,Fc1ccccc1N1CCN(Cc2nc(-c3ccc(Cl)cc3Cl)no2)CC1,19.9% (inactive)
5,CCCC1=NN2C(=N)/C(=C\c3cc(C)n(-c4cccc(C)c4)c3C)C(=O)N=C2S1,24% (inactive)
6,Oc1ccc(Br)cc1-c1cc(-c2ccccc2)n[nH]1,19.6% (inactive)
7,CC(=O)Nc1ccc(SCC(=O)N(CCC#N)c2cc(C)cc(C)c2)cc1,18% (inactive)
8,Cc1ccccc1N=C1NC(=O)/C(=C/c2cccn2-c2cccc(C(=O)O)c2)S1,21.3% (inactive)
9,CN1CCc2nc3sc(C#N)c(N)c3c(-c3cccs3)c2C1,10.1% (inactive)
10,OC(CNCC1(N2CCCCC2)CCCCC1)COc1ccc(Cl)cc1Cl (stereo not given),11.6% (inactive)
11,OCC1(CCOc2ccccc2)CCN(Cc2nc3ccc(F)cc3[nH]2)CC1,7.83% (inactive)
12,CCCCn1c(SCC(=O)N2CCN(c3ccccc3)CC2)nc2ccsc2c1=O,6.77% (inactive)
13,CCOC(=O)CSc1nc2c(sc(=S)n2-c2ccc(OCC)cc2)c(=O)[nH]1,19.1% (inactive)
14,CN(Cc1ccccc1)c1nc(N)c([N+](=O)[O-])c(NCc2ccccc2)n1,-7.95% (inactive)
15,O=C(O)c1ccccc1Nc1ccc([N+](=O)[O-])cc1,24.6% (inactive)
16,Oc1ccc(F)cc1-c1cc(-c2ccc3c(c2)OCCO3)n[nH]1,7.86% (inactive)
17,O=C1NC(=Nc2ccc(Cl)cc2)SC1Cc1cccc(Cl)c1Cl (stereo not given),12.4% (inactive)
18,Cc1cccc(-n2nc(C)c3c(C(=O)O)cc(-c4cccs4)nc32)c1,24.9% (inactive)
19,Cc1ccc(OCCSCc2nnc(NC(=O)Nc3cccc(Cl)c3)s2)cc1,19.4% (inactive)
20,CC(C)(O[C@@H]1O[C@H](CO)[C@@H](O)[C@H](O)[C@H]1O)[C@H]1Cc2cc3ccc(=O)oc3cc2O1,0.22% (inactive)
21,Cc1ccc(C(=O)c2coc3cc([N+](=O)[O-])c(O)c([N+](=O)[O-])c23)cc1,18.6% (inactive)
22,Cc1ccc(C(=O)O)cc1-c1ccc(/C=C2/NC(=O)N(c3ccccc3)C2=O)o1,19.9% (inactive)
23,CCCC(=O)Oc1ccccc1C1SCc2cc(C)c(C)cc2CS1,6.38% (inactive)
24,COc1ccc(CN(C(=O)c2oc3ccccc3c2C)C2CCS(=O)(=O)C2)cc1OC (stereo not given),18.3% (inactive)

row,SMILES,CPE inhibition
1,CCOC(=O)c1c(NC(=O)CSc2ccccc2C(=O)O)sc(C)c1C,19.3% (inactive)
2,O=C(NC1=NCCS1)c1ccc(Cl)c(S(=O)(=O)N2CCCC2)c1,12.3% (inactive)
3,O=C(c1ccco1)N1CCN(c2nc(-c3ccc(F)cc3)cs2)CC1,17.1% (inactive)
4,CSc1nsc2nc(=O)c(/C=C3\C(C)=Nc4ccccc43)c(N)n12,23% (inactive)
5,COc1ccc(Cn2c(C)c(C)c(C#N)c2NC(=O)Nc2cccc(Cl)c2)cc1,10.6% (inactive)
6,N#CCSc1nc(N)c(C#N)c(C2CCCCC2)c1C#N,6.59% (inactive)
7,Cc1ccc(-n2nc(C)c(NC(=O)CCl)c2C)cc1,13.3% (inactive)
8,COC(=O)c1ccc(NC(=O)c2ccccc2NS(C)(=O)=O)cc1,22.4% (inactive)
9,CSc1nsc2nc(=O)c(/C=C3\C=Nc4ccccc43)c(N)n12,20.5% (inactive)
10,Cc1nc(CNS(=O)(=O)c2cccnc2)cs1,4.68% (inactive)
11,CC(=O)c1ccc(N2CCN(C(=O)c3cc(-c4cccnc4)nc4ccc(Br)cc34)CC2)cc1,0.41% (inactive)
12,Cc1ccc(C2CC(=O)c3cnn(-c4nc(C)cc(C)n4)c3C2)cc1 (stereo not given),5.7% (inactive)
13,C#CCSc1ncc(S(=O)(=O)c2ccccc2)c(=O)[nH]1,1.65% (inactive)
14,c1coc(CNc2c3c(nc4ncnn24)CCCC3)c1,13.4% (inactive)
15,O=c1/c(=C/c2ccc(O)c([N+](=O)[O-])c2)sc2nc3ccccc3n12,12.4% (inactive)
16,CCOC(=O)c1c(NC(=O)CSc2ncn[nH]2)sc(C)c1C,21% (inactive)
17,CCCCN(CCCC)CC(O)COc1ccccc1Br (stereo not given),15.3% (inactive)
18,CC(=O)NCC1=C(NC(C)=O)C2CC1C(C)(C)C2C (stereo not given),2.41% (inactive)
19,COc1ccc(CCNCC(O)c2ccccc2)cc1 (stereo not given),13.7% (inactive)
20,Cc1c(Cl)cccc1NC(=O)c1cc(-c2ccccc2O)n[nH]1,17.9% (inactive)
21,N#Cc1c(SCc2cccc(Cl)c2)sc(C(=O)c2ccccc2)c1N,25.2% (inactive)
22,COc1cccc(C2CC(c3ccc(Cl)cc3Cl)Nc3nc(N)nn32)c1 (stereo not given),2.82% (inactive)

# From PubChem BioAssay AID1250 (SRMLSC, 2008)
